Among the data in patent publication US6541062B2, “Water-soluble soybean extracts” (priority 1999, dated 2003) are solubility values, retold here.

Values after ≈ are worked out from the molar mass of the structure shown.

What is called solubility is the concentration that dissolves in the medium under given conditions.

Data set [1] can be described thus: solubility in water (stepwise addition of water, visual inspection). Particulars: 25 °C, thermodynamic from solid. In kind it is physicochemical. Here is the method: A clear water-soluble soybean-based extract (2 liters) obtained in the same manner as described in Example 1. The extract solution was then lyophilized using a lyophilizer manufactured by Bertis Corp for 2 days at −85° C. under 10 mm Torr, resulting in 350 g of a pale yellow dry cake. […] The solubility was tested by first adding 1 g of the dried extract into 1 ml of pure water at 25° C. with agitation for 5 min. If the extract was not completely dissolved (visual inspection), another 1 ml of water was added and the resulting mixture agitated for 5 minutes at 25° C. Next, the mixture was visually inspected to determine if the extract had completely dissolved. If not, water at 25° C. was added in 1 ml increments and agitated for 5 minutes after each addition of water until the extract was completely dissolved by visual inspection. .

Another data set is described as follows: solubility in methanol. In kind it is physicochemical. Particulars: organic solvent or mixture, 25° C.

`O=c1c(-c2ccc(O)cc2)coc2cc(O[C@@H]3O[C@H](CO)[C@@H](O)[C@H](O)[C@H]3O)cc(O)c12` [genistin] showed a solubility at 5 min in data set [1] of roughly 1000 µg/mL (≈ 2.31 mM). For the same compound, the solubility in “solubility in methanol” is roughly 5000 µg/mL (≈ 11.6 mM).
